Target: T1, Nv-laforin (Nematostella vectensis, UniProt A7SVW9)
T1 construct: gene NEMVEDRAFT_v1g194103; complete open reading frame from Nematostella DNA; GST-Nv-laforin-HIS6 from E. coli BL21 (DE3) CodonPlus RIL; CBM20 plus DSP
T1 sequence (A7SVW9 1-324): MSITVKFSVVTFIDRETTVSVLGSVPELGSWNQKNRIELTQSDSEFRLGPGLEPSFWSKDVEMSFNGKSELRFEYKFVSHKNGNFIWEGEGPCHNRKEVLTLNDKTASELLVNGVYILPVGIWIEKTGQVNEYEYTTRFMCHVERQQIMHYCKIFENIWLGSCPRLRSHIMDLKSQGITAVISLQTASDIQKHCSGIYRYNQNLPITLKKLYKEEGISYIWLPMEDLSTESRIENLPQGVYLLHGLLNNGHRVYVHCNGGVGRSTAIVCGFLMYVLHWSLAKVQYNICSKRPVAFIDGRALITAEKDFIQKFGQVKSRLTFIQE
Assay: p-NPP hydrolysis, absorbance […] nm
Assay type: biochemical
Settings: 50 mM pNPP, pH 5-8 tested (optimum pH 7.5), 37 °C, 2 mM dithiothreitol, 0.1 M sodium acetate, 0.05 M bis-Tris, 0.05 M Tris-HCl

O=[N+]([O-])c1ccc(OP(=O)(O)O)cc1 [para-nitrophenylphosphate]
p-NPP hydrolysis, absorbance 410 nm: Both Bf- and Nv-laforin also utilized p-NPP as an artificial substrate

From publication PMC2714694, “Conservation of the glucan phosphatase laforin is linked to rates of molecular evolution and the glucan metabolism of the organism” (BMC Evolutionary Biology, 2009)
